The values below come from patent publication US10085988B1, “Aglaroxin C and derivatives as HCV entry inhibitors” (SRI International, priority 2015, dated 2018).

Structures are written as SMILES.

Data set [1] relates to JFH-1 genotype 2a infectious virus (HCVcc). The data set can be described thus: HCV (HCVcc) infection / viral entry inhibition on Huh7.5.1 cells. It counts as cell-based, Hepatitis C virus. The conditions noted are these: for EC50: Hepatitis C virus; for inhibition on HCV entry (enantiomer comparison): HCVcc infection. The procedure:
(§1) (A) PHHs seeded in a 48-well plate were treated with Roc-A or DMSO and then infected by HCVpp. EC50and CC50 (50% cytotoxicity dose) were calculated based on the fitted Sigmoid curves. (B) Huh7.5.1 cells were treated with Roc-A (20 nM) or DMSO for 1, 2, and 3 days. Cellular PHB1, PHB2, CRaf, and Ras were detected by Western blotting. Numbers shown below Western blot gel images indicate the relative protein levels quantified by Odyssey imaging system (LI-COR Biosciences). (C-D) Flag-CRaf (F-CRaf) and V5-tagged PHB1 & 2 were co-transfected into 293T cells and then left untreated or treated with Roc-A (20 nM) before immunoprecipitation with anti-Flag antibody. The pulled-down PHB1 & 2 as well as CRaf were detected by immunoblotting. (E) Different inhibitory profiles of the (+)- and(−)-Roc-A enantiomers on HCVcc infection. (F) A CMV-luciferase reporter construct was transfected into Huh7.5.1 cells. 24 h post-transfection each compound was added to the cells for 3 h at 2 μM. After removal of the compound, the cells were further incubated for 24 h followed by luciferase assay. […] HCVcc-Luc was added to Huh7.5.1 cells at 37° C. and incubated for 3 h. At the indicated time points, 2μM of each compound or DMSO was added into the media and incubated for 3 h prior to removal. Infected cells were incubated at 37° C. for an additional 48 h prior to luciferase assay (mean of n=3; error bars, s.d.).
(§2) In a preferred embodiment, Y is C, R1, R3, and R4 from the structure 5 is —OCH3, and R2 and R5 is hydrogen, which is aglaroxin C. […] The term EC50 refers to the concentration of a drug or antibody which induces a response halfway between the baseline and maximum after a specified exposure time. It is commonly used as a measure of drug's potency. The 50% cytotoxic concentration (CC50) is defined as the quantity of a toxicant generating 50% of cell viability, compared to the control. The values of the percentages of cell viability were plotted against toxicant concentrations, and CC50 is determined. (TI) is a comparison of the amount of a therapeutic agent that causes the therapeutic effect to the amount that causes toxicity.

A short description of data set [2]: Cytotoxicity (CC50) on Huh7.5.1 cells. The note with it: human; for CC50 at 3 h: compounds incubated with cells for a total of 3 h on Huh7.5.1 cells; for CC50 at 48 h: compounds incubated with cells for a total of 48 h on Huh7.5.1 cells. It counts as cell-based.
Source text: as §2

Data set [3] relates to protein translation (luciferase reporter gene). The data set can be described thus: Translation inhibition, CMV-luciferase reporter transfected into Huh7.5.1 cells. The data set is classed as cell-based, human. The conditions noted are these: compound added for 3 h, luciferase reporter in Huh7.5.1 cells. The procedure: as §1
The test system of a further data set is HCVcc-Luc. The data set can be described thus: Time-of-addition experiment, HCVcc-Luc on Huh7.5.1 cells. The note with it: 2 μM. It counts as cell-based, Hepatitis C virus. The procedure:
as §1

Data set [4] deals with PHB1, PHB2, CRaf, and Ras (Homo sapiens (Human), UniProt P35232+Q99623). The data set can be described thus: Western blot of total cellular protein levels in Huh7.5.1 cells. It counts as cell-based. The note with it: 20 nM, 1, 2, and 3 days. The procedure:
as §1
A general note: In western blotting, separated proteins are transferred to a membrane and probed.

The target of the next data set is PHB1 and PHB2 (Homo sapiens (Human), UniProt P35232+Q99623). The data set can be described thus: Cell surface biotinylation assay. The note with it: 20 nM, Huh7.5.1 cells. It counts as cell-based.
For data set [5], the system named is HCV RNA replication or protein translation. As to the kind of experiment: HCV RNA replication or protein translation. The data set is classed as cell-based, Hepatitis C virus. The conditions noted are these: 20 nM.
Another data set has as its target PHB-CRaf interaction (Homo sapiens (Human), UniProt P35232+Q99623). As to the kind of experiment: Co-IP of Flag-CRaf and V5-tagged PHB1 & 2 in 293T cells. It counts as cell-based. The conditions noted are these: 20 nM. As for the experimental part: as §1
A further data set deals with CHIKVpp. The data set can be described thus: CHIKVpp infection of Huh7.5.1 cells. It counts as cell-based, chikungunya virus. The note with it: low nanomolar concentrations. As for the experimental part:
FIGS. 4A and 4B illustrate that PHBs are required for CHIKVpp entry. (A) Huh7.5.1 were transfected with indicated siRNA, followed by infection of CHIKVpp (mean±SD, *p<0.05). (B) Huh 7.5.1 cells were treated with DMSO or Roc-A (10 nM) and then infected by CHIKVpp for luciferase assay (mean±SD, *p<0.05).

For data set [6] the following is noted: human liver microsomal stability assay. (In general: Liver microsomes are a subcellular fraction often used to study metabolism.)
In another data set the test system is HCVpp. As to the kind of experiment: HCVpp infection/entry, primary human hepatocytes (PHHs), with cell viability. It counts as cell-based, Hepatitis C virus.
The test system of a further data set is DENV2. The data set can be described thus: DENV2 infection of Huh7.5.1 cells. It counts as cell-based, dengue virus. The procedure:
Huh7.5.1 cells were treated by DMSO, Roc-A (5nM) or Roc-A (10nM) for 10 hours prior to infection by DENV2 (MOI 0.1 and 1). 36 hours post-infection, cells were fixed in methanol and immunostained for DENV prM/E (red).

[7] abbreviates: 3 h incubation on Huh7.5.1 cells.
Where [8] appears, read: 48 h incubation on Huh7.5.1 cells.

PHB-CRaf interaction, sequence (P35232 whole entry): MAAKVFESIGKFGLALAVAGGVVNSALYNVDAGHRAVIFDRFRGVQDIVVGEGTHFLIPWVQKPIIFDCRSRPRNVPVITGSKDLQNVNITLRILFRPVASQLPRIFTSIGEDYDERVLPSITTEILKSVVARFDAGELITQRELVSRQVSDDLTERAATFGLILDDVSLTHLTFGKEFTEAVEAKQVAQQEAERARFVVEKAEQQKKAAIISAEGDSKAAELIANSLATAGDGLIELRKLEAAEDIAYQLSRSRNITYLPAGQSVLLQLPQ
PHB-CRaf interaction, sequence (Q99623 whole entry): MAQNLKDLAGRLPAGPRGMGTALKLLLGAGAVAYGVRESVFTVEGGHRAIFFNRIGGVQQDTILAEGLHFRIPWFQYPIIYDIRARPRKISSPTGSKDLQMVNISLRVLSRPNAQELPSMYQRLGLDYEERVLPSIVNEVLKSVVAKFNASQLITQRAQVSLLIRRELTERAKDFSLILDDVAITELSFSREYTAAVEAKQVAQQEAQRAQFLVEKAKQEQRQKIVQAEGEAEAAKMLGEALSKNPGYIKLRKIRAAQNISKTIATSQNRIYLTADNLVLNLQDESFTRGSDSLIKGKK

`COc1ccc([C@]23Oc4cc(OC)cc(OC)c4[C@@]2(O)c2nc4n(c(=O)c2[C@@H]3c2ccccc2)CCC4)cc1` [(+)-aglaroxin C]: the “TI (CC50/EC50)” value in data set [1] (setting [7]) was 5^1. Moreover, in data set [1] (Huh-7.5.1, 3 h), a half-maximal effect (EC50) was put at 20000 nM. Moreover, the CC50 (commonly the concentration that lowers cell viability or growth by half) at 3 h in data set [2] was found to be 100000 nM. Moreover, in data set [3], the “Translation inhibition at 2 μM” value was “No”.
Consider `COc1ccc([C@@]23Oc4cc(OC)cc(OC)c4[C@]2(O)c2nc4n(c(=O)c2[C@H]3c2ccccc2)CCC4)cc1` (racemic) [(±) aglaroxin C (C10), aglaroxin C], for which the anti-HCV activity entry in the data set with HCVcc-Luc (added about 3 h after the infection was initiated) is given as “lost its activity”; in the data set on HCVcc-Luc (added together with the virus), “inhibited HCV infection when added together with the virus”; in the data set on HCVcc-Luc (added together with the virus, listed as chiral, racemic aglaroxin C) it was “maximal anti-HCV activity”. Moreover, the “TI (CC50/EC50)” value in data set [1] (setting [7]) is 100; in data set [1] (setting [8]) it was 500. Also, the concentration for a half-maximal effect (EC50) (in general, the concentration giving half of the maximal effect) in data set [1] (Huh-7.5.1, 3 h) came to 100 nM; in data set [1] (Huh-7.5.1, 48 h), 0.04 nM. In addition, the “half-maximum effective concentrations (EC50)” value in data set [1] (JFH-1 genotype 2a infectious virus in cell culture) is given as “picomolar”. The molecule also gave a CC50 at 3 h in data set [2] of 10000 nM. In data set [2], this molecule displayed a CC50 at 48 h of 20 nM. The “Translation inhibition at 2 μM” value in data set [3] is “No”; in [3] (listed as chiral, racemic aglaroxin C) it was “did not inhibit”.
Molecule `COc1ccc([C@]23Oc4cc(OC)cc(OC)c4[C@@]2(O)[C@@H](O)[C@@H](C(=O)N(C)C)[C@@H]3c2ccccc2)cc1` [(+) Roc-A] yielded an EC50 in [1] (Huh-7.5.1, 3 h) of more than 200000 nM. This molecule also came in with a half-maximal cytotoxic concentration (CC50) at 3 h in data set [2] of 300000 nM. In [3], the “Translation inhibition at 2 μM” value is given as “No”.
Regarding `COc1ccc([C@@]23Oc4cc(OC)cc(OC)c4[C@]2(O)[C@H](O)[C@H](C(=O)N(C)C)[C@H]3c2ccccc2)cc1` [Roc-A, rocaglamide A], the “PHB1, 2, Ras, and CRaf at the total protein level” value in data set [4] is given as “decreased”. On PHB1 and PHB2, the “cell surface expression of PHB1 and 2” value was “decreased”. The “inhibition of HCV RNA replication or protein translation” value in data set [5] is reported as “did not inhibit”. Further, in data set [1] (low nanomolar concentrations), the HCVcc infection result is reported as “significantly reduced”. Further, the “PHB-CRaf interaction in co-IP experiment” value at PHB-CRaf interaction is recorded as “disrupted”. Moreover, the CHIKVpp infection result in the data set with CHIKVpp is “significantly reduced”. Besides, the half-life (usually the time in which the quantity being followed falls by half) in data set [6] was found to be 37 min. In addition, the HCVpp infection entry in the data set with HCVpp (low nanomolar concentrations) is given as “significantly reduced”. Besides, the HCVpp entry entry in the data set with HCVpp (pretreatment of PHHs at non-cytotoxic concentrations) was “suppressed”. Further, the DENV2 infection entry in the data set on DENV2 (5 nM or 10 nM for 10 hours prior to infection, MOI 0.1 and 1, Huh7.5.1 cells) is recorded as “reduced”. The dengue virus infection entry in the data set on DENV2 (low nanomolar concentrations) is listed as “significantly reduced”.
For the molecule `COc1ccc([C@@]23Oc4cc(OC)cc(OC)c4[C@]2(O)c2nc4n(c(=O)c2[C@H]3c2ccccc2)CCC4)cc1` [(−)-aglaroxin C], the “TI (CC50/EC50)” value in [1] (setting [7]) is on record as 60^1. In data set [1], the “inhibition on HCV entry (enantiomer comparison)” value is given as “active enantiomer”. In [1] (Huh-7.5.1, 3 h), this molecule displayed a concentration giving a half-maximal response (EC50) of 200 nM. The 50% cytotoxic concentration (CC50) at 3 h in data set [2] was 12000 nM. The “Translation inhibition at 2 μM” value in data set [3] is “No”.
Consider `COc1ccc([C@@]23Oc4cc(OC)cc(OC)c4[C@]2(O)[C@H](O)[C@H](C(=O)N(C)C)[C@H]3c2ccccc2)cc1` [(−) Roc-A], for which the “TI (CC50/EC50)” value was 50 in [1] (setting [7]) and 75 in data set [1] (setting [8]). In [1], the “inhibition on HCV entry (enantiomer comparison)” value is recorded as “stronger inhibition on HCV entry than the (+) enantiomer”. Also, the EC50 amounted to 1000 nM in [1] (Huh-7.5.1, 3 h) and 4 nM in data set [1] (Huh-7.5.1, 48 h). For the same molecule, the 50% cytotoxic concentration (CC50) at 3 h in data set [2] is 50000 nM. In addition, the CC50 at 48 h in [2] came to 300 nM. In data set [3], the “Translation inhibition at 2 μM” value was “No”.
